Reference: PMC5503626, “GLUT1-mediated selective tumor targeting with fluorine containing platinum(II) glycoconjugates” (Oncotarget, 2017)

Experiments:
[1] = system: H460 (human lung cancer cell line); assay: MTS cytotoxicity assay, H460; assay type: cell-based; settings: 72 h, mean ± SD
Protocol: (§1) The cisplatin stock solution was prepared in PBS.

[2] = system: DU145 (human prostate cancer cell line); assay: MTS cytotoxicity assay, DU145; assay type: cell-based; settings: 72 h, mean ± SD
Protocol: as §1

[3] = system: A549 (human lung carcinoma); assay: MTS cytotoxicity assay, A549; assay type: cell-based; settings: for IC50: MTS assay, 72 h, mean ± SD
Protocol: as §1

[4] = system: SKOV3 (human ovarian cancer cell line); assay: MTS cytotoxicity assay, SKOV3; assay type: cell-based; settings: for IC50: MTS assay, 72 h, mean ± SD
Protocol: as §1

[5] = system: MCF7 (human breast cancer cell line); assay: MTS cytotoxicity assay, MCF7; assay type: cell-based; settings: 72 h, mean ± SD
Protocol: as §1

[6] = system: HT29, empty vector transfected and shGLUT1-transfected cells; assay: Cellular platinum accumulation (ICP-MS); assay type: cell-based, human; settings: 200 μM, 2 h, DNA isolated
Protocol: The uptake values are depicted in Figure 5H.
HT29 cells were seeded in 10 cm dishes at densities of 6 × 10^6 cells/dish and kept at 37°C in a humidified 5% CO2 incubator. […] The cell suspensions were centrifuged at 2500 rpm for 10 min and remove the PBS. Vortex vigorously to resuspend cells. Nuclei lysis solution was added to lyse the cells. DNA was extracted with TIANamp Genomic DNA kit (TIANGEN). The extracted DNA was dissolved in concentrated nitric acid (0.05 mL) and diluted with 4.95 mL of deionized water (final concentration 1% v/v) for determining the platinum content. The platinum content taken up by the cells was determined by Agilent 7700X ICP-MS (Agilent Technologies, Tokyo, Japan). Calibrations were done using standard solutions containing 6.25, 12.5, 25, 50 and 100 ppb platinum.

[7] = system: 5′-Guanosine Monophosphate (5′-GMP); assay: Reaction kinetics with 5′-GMP by 1H NMR; settings: 5 mM complex, 10 mM 5′-GMP, 5 mM NaCl, pH 7.2-7.4, 37°C
Protocol: A 5 mM solution of the sodium chloride was added to the mixture to simulate the intracellular environment.
Kinetic study of the substitution reactions between sugar conjugated platinum complexes with 5′-Guanosine Monophosphate was performed on Bruker Avance 400 MHz spectrometer by ^1H NMR analysis. Platinum complex (5 mM) and 5′-GMP (10 mM) were freshly prepared in deuterium oxide (D2O) at 37°C. A 5 mM solution of the NaCl in D2O was added to the mixture just before running the spectra. All samples were incubated at 37°C in a water bath to simulate physiological conditions and 1H NMR spectra were recorded at 295 K over a period of several days.

[8] = system: HT29 tumor xenograft BALB/c nude mice model
Protocol: Female BALB/c nude mice were inoculated by subcutaneous injection of HT29 human colon cancer cells (5 × 10^6). For the treatment groups, drug dosage was adjusted for average body weight for each group. Injection volume was 10 mL/kg. Each treatment group contains eight mice and control animals used ten mice and received injections of sterile saline. Treatments were initiated when the tumor reached a volume of 100-300 mm^3 in all mice. Animals received multiple treatments intravenously on days 0, 7, 14 and 21. […] Saline (5% v/v) was administered to the vehicle control group. Tumor volume was assessed regularly by measuring length (l) and width (w) with caliper and calculated using the formula V = lw^2/2. Body weight was recorded and used as a parameter of systemic toxicity. All mice were sacrificed on the 46th day of the experiment, and the tumor weight was measured.

[9] = system: HT29 (human colon cancer cell line); settings: read-out: IC50 (μM) HT29; MTS assay, 72 h, mean ± SD
Protocol: The human colon cancer (HT29), breast cancer (MCF7), prostate cancer (DU145) and ovarian cancer (SK-OV-3) cell lines, were obtained from Central Institute of Pharmaceutical Research, CSPC Pharmaceutical Group, China. The human lung cancer cell lines H460 and A549 were purchased from the American Type Culture Collection (ATCC). […] MCF7 and SK-OV-3 were cultured in advanced Dulbecco's modified Eagle medium (DMEM), and other cell lines were cultured as adherent monolayer in RPMI-1640 supplemented with 1% (w/v) glutamine and 10% (v/v) fetal bovine serum (Gibco) at 37°C under a humidified atmosphere containing 5% CO2 and 95% air.
Cytotoxicity assays were carried out by the Celltiter 96 aqueous nonradioactive cell proliferation assay (Promega, Madison, WI). Cells were harvested by trypsinization and seeded in a 96-well flat-bottomed microplate in volumes of 100 μL at the following appropriate densities: 5.0 × 10^3 (A549), 8.0 × 10^3 (HT29), and 3.0 × 10^3 (H460), 5.0 × 10^3 (SKOV3), 8.0 × 10^3 (MCF7), 8.0 × 10^3 (DU145) cells per well. After being allowed to settle and resume exponential growth for 24 h, the cells were treated either with vehicle or with appropriate serial dilutions of the complexes. […] All the tested compounds were dissolved at room temperature prior to use and serially diluted in medium. Cells were incubated in a humidified atmosphere of 5% CO2 at 37°C for 72h. After incubation, 20 μL of MTS/PMS solution were added to each well and the mixtures were allowed to equilibrate for 2 h. The absorbance of MTS products was measured spectrophotometrically at 490 nm with microplate reader (VERSAmax, USA). The IC50 values of each test sample were calculated from nonlinear curve fits using dose-response equation in GraphPad Prism (La Jolla, CA). Experimental conditions were performed in five replicates and the calculated IC50 values are averages of three individual experiments.

[10] = system: DBA/2 mice; settings: both mouse models (DBA/2 and BALB/c)
Protocol: The maximum tolerated dose is defined as the highest tolerated dose (mean weight loss < 15%) without causing major (life-threatening) toxicity (< 15% toxic deaths) in the study.
Three weeks-old male DBA/2 mice purchased from Beijing Vital River Laboratory Animal Technology Co. Ltd. were used for MTD study. Determination of MTD was performed as previously described [22]. […] Physiological observations (body weight and food consumption) were recorded. The maximum tolerated dose is defined as the highest tolerated dose (mean weight loss < 15%) and not cause major (life-threatening) toxicity (< 15% toxic deaths) during the study.

[11] = system: L1210 leukemia bearing DBA/2 mice; settings: 5a 11 mg/kg (18% MTD) vs oxaliplatin 7 mg/kg (70% MTD), i.p., days 1, 5, 9
Protocol: The same male DBA/2 mice were used for in vivo efficacy study. Mice were kept in a pathogen-free environment under a condition of constant photoperiod. […] Six mice for treatment groups and ten mice for control group were used for this in vivo study. L1210 murine leukemia cells (1 × 10^6) were injected intraperitoneally into DBA/2 mice on day 0. […] Control group of ten mice each received injections of sterile saline. Animals were observed daily for clinical signs of toxicity and body weight was measured throughout the study.

[12] = system: DBA/2 mice; settings: previous study; cited from earlier work
[13] = system: BALB/c nude mice; settings: previous study; cited from earlier work
[14] = system: HT29 human colon cancer cell line; assay: GLUT1 inhibitor (quercetin) dependent cytotoxicity assay; assay type: cell-based; settings: 48 h
Protocol: (E) RT-PCR analysis of GLUT1 mRNA expression in empty vector transfected and shGLUT1-transfected cells. NT: HT29 cells; mock: HT29 cells transfected by empty vector pLKO.1; shRNA1: HT29 cells transfected by shGLUT1-1 and selected by 1 μg/mL of puromycin; shRNA2: HT29 cells transfected by shGLUT1-2 and selected by 1 μg/mL of puromycin. […] HT29 exposed with PBS or quercetin alone were served as negative control. […] Data was calculated from three independent experiments. *P < 0.05, compared to the control group.
HT29 cells were grown in monolayer and were treated with and without quercetin, followed by exposure to 100 μM of platinum(II) complexes for 48 h. MTS assay was used to analyze the cell viability and the effects of GLUT1 inhibitor quercetin on cytotoxicity.

[15] = system: pUC18 plasmid DNA; assay: Plasmid unwinding assay (gel electrophoresis); settings: 12.5 to 100 μM, 37°C
Protocol: To assess if the in vitro anti-proliferative activity of the sugar conjugates may be at the DNA adduct level, a plasmid unwinding assay was performed. The local untwisting of closed-circular supercoiled DNA induced by different types of platinum−DNA adducts can be determined by this assay [36]. […] On agarose gels, supercoiled plasmid DNA (form I) migrates faster in an electrical field than the nicked circle (form II).
After the incubation period, drug-DNA mixtures were loaded onto 0.8% agarose gel and electrophoresis was performed in Tris-acetate/EDTA buffer (TAE) for 1.5 h at 80 V. The gel was stained with GelRed^TM nucleic acid dye, visualized and photographed on the Bio-Rad Trans illuminator IEC 1010 (Bio-Rad, Hercules, CA).

[16] = system: cisplatin resistant HT29cisR human colon carcinoma cell line; assay: Cytotoxicity in cisplatin resistant cells; assay type: cell-based; settings: read-out: IC50 against HT29cisR
Protocol: as §1

| SMILES | IC50 [1] [µM] | IC50 [2] [µM] | IC50 [3] [µM] | activity higher than oxaliplatin in A549 ([3]; versus oxaliplatin) [fold] | IC50 [4] [µM] | IC50 [5] [µM] | platinum uptake (intracellular platinum accumulation) [6] | reaction with 5′-GMP compared to oxaliplatin [7] | tumor volume ([8]; 25 mg/kg i.v., days 0, 7, 14, 21) | IC50 [9] [µM] | MTD higher than oxaliplatin [10] [fold] | lifespan and survival rate [11] | MTD [12] [mpk] | MTD [13] [mpk] | dependency of cell-killing potency on quercetin ([14]; 100 μM platinum complex, with or without quercetin (20 μM)) | body weight change versus vehicle group ([8]; 5a 25 mg/kg, oxaliplatin 7 mg/kg, i.v. qw x 4) | mobility of supercoiled and singly-nicked plasmid DNA bands [15] | lower IC50 values than oxaliplatin in SK-OV-3 ([4]; versus oxaliplatin) | IC50 [16] [µM] | cytotoxic effect of quercetin alone ([14]; quercetin 20 μM alone) |
| --- | --- | --- | --- | --- | --- | --- | --- | --- | --- | --- | --- | --- | --- | --- | --- | --- | --- | --- | --- | --- |
| O=C1[O][Pt]2([NH][C@@H]3CCCC[C@H]3[NH]2)[O]C(=O)C1(F)CCO[C@H]1O[C@H](CO)[C@@H](O)[C@H](O)[C@H]1O (stereo partly drawn) [5a, (trans-R,R-cyclohexane-1,2-diamine)-2-fluoromalonatoplatinum(II)-α-D-glucose conjugate] | 11.05 ± 0.11 | 5.98 ± 0.16 | 0.35 ± 0.17 | 2 | 16.7 ± 0.32 | 0.61 ± 0.13 | greater than that in HT29-shRNA1 and HT29-shRNA2 cells | faster reactions | statistically significant tumor shrinkage | 0.53 ± 0.16 | ~5 | overwhelming superiority in lifespan and survival rate | 60 | 36 |  |  |  |  |  |  |
| O=C1[O][Pt]2([NH][C@@H]3CCCC[C@H]3[NH]2)[O]C1=O [Oxaliplatin, reference compound] | 22.11 ± 0.17 | 2.05 ± 0.16 | 0.86 ± 0.09 |  | 8.54 ± 0.18 | 0.79 ± 0.11 |  |  |  | 5.05 ± 0.2 |  |  | 10 | 7 | did not exhibit quercetin dependent cytotoxicity | no significant difference | increased and showed concentration dependency |  |  |  |
| O=C1[O][Pt]2([NH][C@@H]3CCCC[C@H]3[NH]2)[O]C(=O)C1(F)CCO[C@H]1O[C@H](CO)[C@@H](O)[C@H](O)[C@@H]1O (stereo partly drawn) [5b, (trans-R,R-cyclohexane-1,2-diamine)-2-fluoromalonatoplatinum(II)-α-D-mannose conjugate] | 10.2 ± 0.15 | 2.6 ± 0.18 | 0.65 ± 0.1 |  | 2.22 ± 0.19 | 0.41 ± 0.09 |  | faster reactions |  | 2.16 ± 0.18 |  |  |  |  |  |  |  | up to 70% |  |  |
| N.N.[Cl][Pt][Cl] [Cisplatin, cis-(NH3)2PtCl2] |  |  |  |  |  |  |  |  |  |  |  |  |  |  |  |  | increased and showed concentration dependency |  | 19.4 |  |
| O=c1c(O)c(-c2ccc(O)c(O)c2)oc2cc(O)cc(O)c12 [quercetin] |  |  |  |  |  |  |  |  |  |  |  |  |  |  |  |  |  |  |  | did not exert any cytotoxic effect |
| O=C1[O][Pt]2([NH][C@@H]3CCCC[C@H]3[NH]2)[O]C(=O)C1(F)CCO[C@@H]1O[C@H](CO)[C@H](O)[C@H](O)[C@H]1O (stereo partly drawn) [5c, (trans-R,R-cyclohexane-1,2-diamine)-2-fluoromalonatoplatinum(II)-β-D-galactose conjugate] | 10 ± 0.15 | 5.11 ± 0.14 | 4.9 ± 0.16 |  | 22.05 ± 0.2 | 9.82 ± 0.12 |  | faster reactions |  | 1.07 ± 0.12 |  |  |  |  |  |  |  |  |  |  |
